# Results published in patent US9179674B2, “Macrocyclic picolinamide compounds with fungicidal activity” (DOW AGROSCIENCES LLC, priority 2013, dated 2015).
# Like-named read-outs stand apart in the source and are kept apart here.
# Assays:
# Assay type in all cases: in vivo
# Puccinia triticina = experiment: Wheat Brown Rust fungicidal activity (PUCCRT); conditions: Puccinia triticina; for pest or weed control at 100 ppm: rate 100 ppm; for pest or weed control at 121.5 g/ha: rate 121.5 g/H
# Summary of the method: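 Yuma wheat seedlings at first-leaf stage sprayed to run-off (acetone solution in water with 110 ppm Triton X-100) or track-sprayed as EC with 0.1% Trycol 5941; inoculated with P. triticina spores before or after treatment. Overnight dark dew at 22° C., then greenhouse 24° C.; disease severity 0–100% gives percent control vs untreated.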
# Phakopsora pachyrhizi = experiment: Asian Soybean Rust fungicidal activity (PHAKPA); conditions: 25 ppm
# Experimental: Evaluation of Fungicidal Activity: Asian Soybean Rust (Phakopsora pachyrhizi; Bayer Code PHAKPA)
# Technical grades of materials were dissolved in acetone, which were then mixed with nine volumes of water containing 0.011% Tween 20. The fungicide solutions were applied onto soybean seedlings using an automated booth sprayer to run-off. All sprayed plants were allowed to air dry prior to further handling.
# Soybean plants (variety Williams 82) were grown in soil-less Metro mix, with one plant per pot. Two weeks old seedlings were used for testing. Plants were inoculated either 3 days prior to or 1 day after fungicide treatments. Plants were incubated for 24 h in a dark dew room at 22° C. and 100% RH then transferred to a growth room at 23° C. for disease to develop. Disease severity was assessed on the sprayed leaves.
# [1] = test system: Mycosphaerella graminicola; Anamorph: Septoria tritici; experiment: Leaf Blotch of Wheat fungicidal activity (SEPTTR); conditions: Zymoseptoria tritici; for pest or weed control at 100 ppm: rate 100 ppm; for pest or weed control at 121.5 g/ha: rate 121.5 g/H
# Summary of the method: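 Acetone solutions diluted with nine volumes of water containing 110 ppm Triton X-100, sprayed to run-off on first-leaf wheat seedlings (Yuma), inoculated with S. tritici before or after treatment. Plants held in dew chambers, then in a 20 °C greenhouse. Disease severity (0–100%) scored when untreated plants fully symptomatic; % control relative to untreated.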
# [2] = 24 h, 1 Day Protectant, read-out: Disease control PUCCRT 1DP
# [3] = 72 h, 3 Day Curative, read-out: Disease control PUCCRT 3DC
# [4] = 24 h, 1 Day Protectant, read-out: Disease control SEPTTR 1DP
# [5] = 72 h, 3 Day Curative, read-out: Disease control SEPTTR 3DC
structure (smiles),measurement,setting,value
COc1ccnc(C(=O)N[C@H]2COC[C@H](Cc3cc(F)c(F)c(F)c3)[C@@H](OCC(C)C)[C@H](C)OC2=O)c1OCOC(C)=O [Compound F109],pest or weed control at 100 ppm,Puccinia triticina; [2],80 to 100%
same,pest or weed control at 121.5 g/ha,Puccinia triticina; [2],80 to 100%
same,pest or weed control at 100 ppm,Puccinia triticina; [3],80 to 100%
same,pest or weed control at 121.5 g/ha,Puccinia triticina; [3],80 to 100%
same,Disease Control PHAKPA 1DP,Phakopsora pachyrhizi; 1 Day Protectant,A (80-100)
same,Disease Control PHAKPA 3DC,Phakopsora pachyrhizi; 3 Day Curative,B (More than 0-Less than 80)
same,pest or weed control at 100 ppm,[1]; [4],80 to 100%
same,pest or weed control at 121.5 g/ha,[1]; [4],80 to 100%
same,pest or weed control at 100 ppm,[1]; [5],80 to 100%
same,pest or weed control at 121.5 g/ha,[1]; [5],80 to 100%
